Source: publication PMC8880132 (Molecules, 2022)
Read-outs that look alike come from different tables or passages of the source.

Assays:
[1] = Pharmacokinetic drug-drug interaction study in rats after oral administration; type: in vivo, SD (Sprague-Dawley) rats; conditions: for AUC(0-inf) / AUC(0-t) / Cmax / Tmax / half-life: male, Sprague-Dawley, rat, plasma, po; for AUC(0-inf) / AUC(0-t) / Cmax / Tmax / half-life / CLz / Vz: rat plasma; for Tmax: median (range); for half-life: read-out: t1/2z (converted)
Description: SPF (specific pathogen free)-grade male SD (Sprague-Dawley) rats (weight: 230 ± 10 g) were purchased from Beijing Weitong Lihua Experimental Animal Technology Co. Ltd. (Beijing, China). Before starting the experiment, the rats were given sufficient food and water and kept under suitable conditions for one week. Suitable conditions included suitable temperature (23–27 °C), suitable humidity (50 ± 10%), and 12-h light–12-h dark diurnal cycle. All animals were fasted for 12 h before the start of the experiment, but they were allowed to drink water freely. All the animal experimental protocols were conducted in accordance with the UK Animals (Scientific Procedures) Act 1986 and under the guideline approved by the Ethics Committee of Hebei General Hospital (Shijiazhuang, China; No. 2021131).
Twenty-four healthy rats were randomly and equally divided into four groups (six animals in each group). […] Approximately 0.3 mL of blood was collected from the orbital venous plexus in a heparinized centrifuge tube from each rat at 0.25, 0.5, 1, 2, 3, 4, 6, 8, 10, 12, 24, 48, 72, and 96 h after administration. […] The blood samples were collected from each rat at 0.17, 0.33, 0.5, 0.75, 1, 2, 3, 4, 6, 8, 10, 12, 24, 48, and 72 h after administration. Blood samples were centrifuged at 3500 rpm for 10 min, and the plasma samples (supernatant) were harvested and stored at −80 °C.
The main pharmacokinetic parameters are presented as mean ± standard deviation and statistically analyzed using SPSS 25.0 software package (SPSS Inc., Chicago, IL, USA). A p-value of <0.05 was considered statistically significant.

[2] = cited from earlier work
[3] = cited from earlier work; remark: listed apart in the source
[4] = tested on: multidrug resistance-associated protein 2 (MRP2); conditions: in vitro studies; cited from earlier work
[5] = Stability of LEN and TEL in rat plasma under various storage conditions; type: in vitro ADME; conditions: for Stability, Accuracy (RE%) vs nominal concentration / Stability, measured concentration Mean ± SD: rat plasma; for Stability, measured concentration Mean ± SD: n = 6
Description: QC samples with six replicates of each concentration were used to assess the stability of the samples under different processing and storage conditions. […] The long-term stability was carried out by freezing at −80 °C for 30 days, and the freeze–thaw stability was verified by repeatedly freezing and thawing three times.

[6] = tested on: P-glycoprotein (P-gp); conditions: cited from earlier work
[7] = tested on: breast cancer resistance protein (BCRP); conditions: cited from earlier work
[8] = TEL 4 mg/kg with LEN 1.2 mg/kg vs TEL alone, rats, oral
[9] = 4 mg/kg, TEL 4 mg/kg oral, alone
[10] = 4 mg/kg, TEL 4 mg/kg oral, with LEN (1.2 mg/kg)
[11] = autosampler for 24 h, high QC (800 ng/mL LEN, 400 ng/mL TEL)
[12] = autosampler for 24 h, low QC (0.5 ng/mL LEN, 0.25 ng/mL TEL)
[13] = autosampler for 24 h, medium QC (150 ng/mL LEN, 75 ng/mL TEL)
[14] = freeze–thaw three times, high QC (800 ng/mL LEN, 400 ng/mL TEL)
[15] = freeze–thaw three times, low QC (0.5 ng/mL LEN, 0.25 ng/mL TEL)
[16] = freeze–thaw three times, medium QC (150 ng/mL LEN, 75 ng/mL TEL)
[17] = room temperature for 8 h, high QC (800 ng/mL LEN, 400 ng/mL TEL)
[18] = room temperature for 8 h, low QC (0.5 ng/mL LEN, 0.25 ng/mL TEL)
[19] = room temperature for 8 h, medium QC (150 ng/mL LEN, 75 ng/mL TEL)
[20] = −80 °C for 30 days, high QC (800 ng/mL LEN, 400 ng/mL TEL)
[21] = −80 °C for 30 days, low QC (0.5 ng/mL LEN, 0.25 ng/mL TEL)
[22] = −80 °C for 30 days, medium QC (150 ng/mL LEN, 75 ng/mL TEL)
[23] = 1.2 mg/kg, LEN 1.2 mg/kg oral, alone
[24] = 1.2 mg/kg, LEN 1.2 mg/kg oral, with TEL (4 mg/kg)
[25] = LEN 1.2 mg/kg oral, with TEL (4 mg/kg)

CCCc1nc2c(C)cc(-c3nc4ccccc4n3C)cc2n1Cc1ccc(-c2ccccc2C(=O)O)cc1 [TEL, Telmisartan]
AUC0–72h reduced by [1, 8]: 44.9% | AUC0–∞ reduced by [1, 8]: 41.3% | Cmax reduced by [1, 8]: 42.2% | Vz higher by [1, 8]: 97.1% | increase in CL [1, 8]: 69% | AUC(0-inf) [1, 9]: 4180 ± 1040 ng·h/mL | AUC(0-t) [1, 9]: 4150 ± 1040 ng·h/mL | Cmax [1, 9]: 171 ± 38 ng/mL | Tmax [1, 9]: 8 h | half-life [1, 9]: 9.36 ± 2.09 h | AUC(0-inf) [1, 10]: 2460 ± 544 ng·h/mL | AUC(0-t) [1, 10]: 2280 ± 322 ng·h/mL | Cmax [1, 10]: 99 ± 19.3 ng/mL | Tmax [1, 10]: 11 h | half-life [1, 10]: 12.4 ± 12.7 h | CLz ([1]; TEL 4 mg/kg oral, alone): 16.7 ± 3.5 mL/min/kg | CLz ([1]; TEL 4 mg/kg oral, with LEN (1.2 mg/kg)): 28.2 ± 5.83 mL/min/kg | water solubility ([2]; solubility is related to PH): poorly water-soluble | half-life [3]: 24 h | MRP2 interaction [4]: substrate and inhibitor | Stability, Accuracy (RE%) vs nominal concentration [5, 11]: −0.38% | Stability, measured concentration Mean ± SD [5, 11]: 398.50 ± 22.76 ng/mL | Stability, Accuracy (RE%) vs nominal concentration [5, 12]: −4.33% | Stability, measured concentration Mean ± SD [5, 12]: 0.24 ± 0.02 ng/mL | Stability, Accuracy (RE%) vs nominal concentration [5, 13]: −1.76% | Stability, measured concentration Mean ± SD [5, 13]: 73.68 ± 1.59 ng/mL | Stability, Accuracy (RE%) vs nominal concentration [5, 14]: −2.17% | Stability, measured concentration Mean ± SD [5, 14]: 391.33 ± 25.73 ng/mL | Stability, Accuracy (RE%) vs nominal concentration [5, 15]: −0.47% | Stability, measured concentration Mean ± SD [5, 15]: 0.25 ± 0.01 ng/mL | Stability, Accuracy (RE%) vs nominal concentration [5, 16]: −3.53% | Stability, measured concentration Mean ± SD [5, 16]: 72.35 ± 2.51 ng/mL | Stability, Accuracy (RE%) vs nominal concentration [5, 17]: −7.58% | Stability, measured concentration Mean ± SD [5, 17]: 369.67 ± 6.98 ng/mL | Stability, Accuracy (RE%) vs nominal concentration [5, 18]: −3.53% | Stability, measured concentration Mean ± SD [5, 18]: 0.24 ± 0.01 ng/mL | Stability, Accuracy (RE%) vs nominal concentration [5, 19]: −2.36% | Stability, measured concentration Mean ± SD [5, 19]: 73.23 ± 5.40 ng/mL | Stability, Accuracy (RE%) vs nominal concentration [5, 20]: 0.38% | Stability, measured concentration Mean ± SD [5, 20]: 401.50 ± 27.46 ng/mL | Stability, Accuracy (RE%) vs nominal concentration [5, 21]: 1.80% | Stability, measured concentration Mean ± SD [5, 21]: 0.25 ± 0.01 ng/mL | Stability, Accuracy (RE%) vs nominal concentration [5, 22]: −0.36% | Stability, measured concentration Mean ± SD [5, 22]: 74.73 ± 1.64 ng/mL | stability of plasma samples ([5]; room temperature 8 h, autosampler 24 h after processing, −80 °C 30 days, freezing and thawing three times): stable | P-gp interaction ([6]; in vitro studies): substrate and inhibitor | BCRP interaction ([7]; in vitro studies): substrate and inhibitor

COc1cc2nccc(Oc3ccc(NC(=O)NC4CC4)c(Cl)c3)c2cc1C(N)=O [LEN, Lenvatinib]
Cmax [1, 23]: 498 ± 107 ng/mL | Tmax [1, 23]: 2.5 h | half-life [1, 23]: 8.75 ± 2.55 h | AUC(0-inf) [1, 24]: 5860 ± 1350 ng·h/mL | AUC(0-t) [1, 24]: 5860 ± 1350 ng·h/mL | Cmax [1, 24]: 644 ± 211 ng/mL | half-life [1, 24]: 9.32 ± 4.69 h | CLz ([1]; LEN 1.2 mg/kg oral, alone): 3.5 ± 0.33 mL/min/kg | Vz ([1]; LEN 1.2 mg/kg oral, alone): 2.69 ± 0.79 L/kg | CLz [1, 25]: 3.67 ± 0.83 mL/min/kg | Vz [1, 25]: 2.92 ± 1.60 L/kg | water solubility [2]: poor water solubility | Stability, measured concentration Mean ± SD [5, 11]: 835.67 ± 34.60 ng/mL | Stability, measured concentration Mean ± SD [5, 12]: 0.48 ± 0.03 ng/mL | Stability, measured concentration Mean ± SD [5, 14]: 787.50 ± 40.13 ng/mL | Stability, measured concentration Mean ± SD [5, 15]: 0.48 ± 0.05 ng/mL | Stability, measured concentration Mean ± SD [5, 16]: 150.17 ± 14.85 ng/mL | Stability, measured concentration Mean ± SD [5, 17]: 751.50 ± 19.74 ng/mL | Stability, measured concentration Mean ± SD [5, 18]: 0.52 ± 0.03 ng/mL | Stability, measured concentration Mean ± SD [5, 19]: 149.33 ± 11.15 ng/mL | Stability, measured concentration Mean ± SD [5, 20]: 808.00 ± 59.16 ng/mL | Stability, measured concentration Mean ± SD [5, 21]: 0.53 ± 0.05 ng/mL | Stability, measured concentration Mean ± SD [5, 22]: 154.00 ± 4.77 ng/mL | P-gp interaction [6]: substrate | BCRP interaction [7]: substrate
